Source: US8012956B2, “Tropane compounds” (Exelixis, Inc., priority 2007, dated 2011)

target: HSP90 (Homo sapiens, UniProt P07900); assay: HSP90 inhibition (HSP90 IC50); assay type: biochemical

SMILES | IC50
COc1cccc(C(=O)N[C@H]2C[C@H]3CC[C@@H](C2)N3c2ccc(C(=O)NCc3ccc(F)c(F)c3)cn2)c1C [N-[(3,4-difluorophenyl)methyl]-6-[3-endo-({(2-methyl-3-(methyloxy)phenyl]carbonyl}amino)-8-azablcyclo[3.2.1]oct-8-yl]pyridine-3-carboxamide] | < 500 nM
COc1cccc(C(=O)N[C@H]2C[C@H]3CC[C@@H](C2)N3c2ccc(C(=O)NCc3cccc(Cl)c3)cn2)c1C [N-[(3-chlorophenyl)methyl]-6-[3-endo-({[2-methyl-3-(methyloxy)phenyl]carbonyl}amino) 8-azabicyclo[3.2.1]oct-8-yl]pyridine-3-carboxamide] | 2000 to 10000 nM
COc1cccc(C(=O)N[C@H]2C[C@H]3CC[C@@H](C2)N3c2ccc(C(=O)NCc3cccc(F)c3)cn2)c1C [N-[(3-fluorophenyl)methyl]-6-[3-endo-({[2-methyl-3-(methyloxy)phenyl]carbonyl}amino)-8-azabicyclo[3.2.1]oct-8-yl]pyridine-3-carboxamide] | 1000 to 2000 nM
CCN(CC)CCOc1cccc(CNC(=O)c2ccc(N3[C@@H]4CC[C@H]3C[C@@H](NC(=O)c3cccc(OC)c3C)C4)nc2)c1 [N-[(3-{[2-(diethylamino)ethyl]oxy}pheny)methyl]-6-[3-endo-({[2-methyl-3-(methyloxy)phenyl]carbonyl}amino)-8-azabicyclo[3.2.1]oct-8-yl]pyridine-3-carboxamide] | < 500 nM
COc1cccc(C(=O)N[C@H]2C[C@H]3CC[C@@H](C2)N3c2ccc(C(=O)NCc3ccc(Br)cc3)cn2)c1C [N-[(4-bromophenyl)methyl]-6-[3-endo-({[2-methyl-3-(methyloxy)phenyl]carbonyl}amino)-8-azabicyclo[3.2.1]oct-8-yl]pyridine-3-carboxamide] | 500 to 999 nM
COc1cccc(C(=O)N[C@H]2C[C@H]3CC[C@@H](C2)N3c2ccc(C(=O)NCc3ccc(Cl)cc3)cn2)c1C [N-[(4-chlorophenyl)methyl]-6-[3-endo-({[2-methyl-3-(methyloxy)phenyl]carbonyl}amino)-8-azabicyclo[3.2.1]oct-8-yl]pyridine-3-carboxamide] | 500 to 999 nM
COc1cccc(C(=O)N[C@H]2C[C@H]3CC[C@@H](C2)N3c2ccc(C(=O)NCc3ccc(F)cc3)cn2)c1C [N-[(4-fluorophenyl)methyl]-6-[3-endo-({[2-methyl-3-(methyloxy)phenyl]carbonyl}amino)-8-azabicyclo[3.2.1]oct-8-yl]pyridine-3-carboxamide] | < 500 nM
CCN(CC)CCOc1ccc(CNC(=O)c2ccc(N3[C@@H]4CC[C@H]3C[C@@H](NC(=O)c3cccc(OC)c3C)C4)nc2)cc1 [N-[(4-{[2-(diethylamino)ethyl]oxy}phenyl)methyl]-6-[3-endo-({[2-methyl-3-(methyloxy)phenyl]carbonyl}amino)-8-azabicyclo[3.2.1]oct-8-yl]pyridine-3-carboxamide] | < 500 nM
COc1cccc(C(=O)N[C@H]2C[C@H]3CC[C@@H](C2)N3c2ccc(C(=O)NCc3ccc(Cl)nc3)cn2)c1C [N-[(6-chloropyridin-3-yl)methyl]-6-[3-endo-({[2-methyl-3-(methyloxy)phenyl]carbonyl}amino)-8-azabicycio[3.2.1]oct-8-yl]pyridine-3-carboxamide] | < 500 nM
COc1cccc(C(=O)N[C@H]2C[C@H]3CC[C@@H](C2)N3c2ccc(C(=O)NC3CNC3)cn2)c1C [N-azetidin-3-yl-6-[3-endo-({[2-methyl-3-(methyloxy)phenyl]carbonyl}amino)-8-azabicyclo[3.2.1]oct-8-yl]pyridine-3-carboxamide] | 500 to 999 nM
CCCCNC(=O)c1ccc(N2[C@@H]3CC[C@H]2C[C@@H](NC(=O)c2cccc(OC)c2C)C3)nc1 [N-butyl-6-[3-endo-({[2-methyl-3-(methyloxy)phenyl]carbonyl}amino)-8-azabicyclo[3.2.1]oct-8-yl]pyridine-3-carboxamide] | 500 to 999 nM
COc1cccc(C(=O)N[C@H]2C[C@H]3CC[C@@H](C2)N3c2ccc(C(=O)NC3CCC3)cn2)c1C [N-cyclobutyl-6-[3-endo-({[2-methyl-3-(methyloxy)phenyl]carbonyl}amino)-8-azabicyclo[3.2.1]oct-8-yl]pyridine-3-carboxamide] | 500 to 999 nM
COc1cccc(C(=O)N[C@H]2C[C@H]3CC[C@@H](C2)N3c2ccc(C(=O)NC3CCCCC3)cn2)c1C [N-cyclohexyl-6-[3-endo-({[2-methyl-3-(methyloxy)phenyl]carbonyl}amino)-8-azabicyclo[3.2.1]oct-8-yl]pyridine-3-carboxamide] | 500 to 999 nM
COc1cccc(C(=O)N[C@H]2C[C@H]3CC[C@@H](C2)N3c2ccc(C(=O)NC3CCCC3)cn2)c1C [N-cyclopentyl-6-[3-endo-({[2-methyl-3-(methyloxy)phenyl]carbonyl}amino)-8-azabicyclo[3.2.1]oct-8-yl]pyridine-3-carboxamide] | 500 to 999 nM
COc1cccc(C(=O)N[C@H]2C[C@H]3CC[C@@H](C2)N3c2ccc(C(=O)NC3CC3)cn2)c1C [N-cyclopropyl-6-[3-endo-({[2-methyl-3-(methyloxy)phenyl]carbonyl}amino)-8-azabicyclo[3.2.1]oct-8-yl]pyridine-3-carboxamide] | 1000 to 2000 nM
CCNC(=O)c1ccc(N2[C@@H]3CC[C@H]2C[C@@H](NC(=O)c2cccc(OC)c2C)C3)nc1 [N-ethyl-6-[3-endo-({[2-methyl-3-(methyloxy)phenyl]carbonyl}amino)-8-azabicyclo[3.2.1]oct-8-yl]pyridine-3-carboxamide] | 500 to 999 nM
COc1cccc(C(=O)N[C@H]2C[C@H]3CC[C@@H](C2)N3c2ccc(C(=O)NO)cn2)c1C [N-hydroxy-6-[3-endo-({[2-methyl-3-(methyloxy)phenyl]carbonyl}amino)-8-azabicyclo[3.2.1]oct-8-yl]pyridine-3-carboxamide] | 2000 to 10000 nM
CNC(=O)c1ccc(N2[C@@H]3CC[C@H]2C[C@@H](NC(=O)c2cccc(OC)c2C)C3)nc1 [N-methyl-6-[3-endo-({[2-methyl-3-(methyloxy)phenyl]carbonyl}amino)-8-azabicyclo[3.2.1]oct-8-yl]pyridine-3-carboxamide] | 1000 to 2000 nM
COc1ccc(C(C)NC(=O)c2ccc(N3[C@@H]4CC[C@H]3C[C@@H](NC(=O)c3cccc(OC)c3C)C4)nc2)cc1OC (stereo partly drawn) [N-{1-[3,4-bis(methyloxy)phenyl]ethyl}-6-[3-endo-({[2-methyl-3-(methyloxy)phenyl]carbonyl}amino)-8-azabicyclo[3.2.1]oct-8-yl]pyridine-3-carboxamide] | 500 to 999 nM
COc1ccc(CCNC(=O)c2ccc(N3[C@@H]4CC[C@H]3C[C@@H](NC(=O)c3cccc(OC)c3C)C4)nc2)cc1OC [N-{2-[3,4-bis(methyloxy)phenyl]ethyl}-6-[3-endo-({[2-methyl-3-(methyloxy)phenyl]carbonyl}amino)-8-azabicyclo[3.2.1]oct-8-yl]pyridine-3-carboxamide] | 2000 to 10000 nM
COc1cccc(C(=O)N[C@H]2C[C@H]3CC[C@@H](C2)N3c2ccc(C(=O)NCCOC(C)C)cn2)c1C [N-{2-[(1-methylethyl)oxy]ethyl}-6-(3-endo-({[2-methyl-3-(methyloxy)phenyl]carbonyl}amino)-8-azabicyclo[3.2.1]oct-8-yl]pyridine-3-carboxamide] | 2000 to 10000 nM
COc1cccc(C(=O)N[C@H]2C[C@H]3CC[C@@H](C2)N3c2ccc(C(=O)NCCCOC(C)C)cn2)c1C [N-{3-[(1-methylethyl)oxy]propyl}-6-[3-endo-({[2-methyl-3-(methyloxy)phenyl]carbonyl}amino)-8-azabicyclo[3.2.1]oct-8-yl]pyridine-3-carboxamide] | 1000 to 2000 nM
Cc1cc(C(N)=O)c(CC(C)C)cc1C(=O)N[C@H]1C[C@H]2CC[C@@H](C1)N2c1ccc(C(=O)C2CC2)cn1 [N-{8-(5-(cyclopropylcarbonyl)pyridin-2-yl]-8-azabicyclo[3.2.1]oct-3-endo-yl}-2-methyl-5-(2-methylpropyl)benzene-1,4-dicarboxamide] | < 500 nM
CCC(Nc1cc(C(=O)N[C@H]2C[C@H]3CC[C@@H](C2)N3c2ccc(C(=O)C3CC3)cn2)c(C)cc1C(N)=O)C1CC1 (stereo partly drawn) [N-{8-(5-(cyclopropylcarbonyl)pyridin-2-yl]-8-azabicyclo[3.2.1]oct-3-endo-yl}-5-[(1-cyclopropylpropyl)amino]-2-methylbenzene-1,4-dicarboxamide] | < 500 nM
Cc1cc(C(=O)N[C@H]2C[C@H]3CC[C@@H](C2)N3c2ccc(C(N)=O)cn2)c(C)cc1C(N)=O [N-{8-[5-(aminocarbonyl)pyridin-2-yl]-8-azabicyclo[3.2.1]oct-3-endo-yl}-2,5-dimethylbenzene-1,4-dicarboxamide] | < 500 nM
NC(=O)c1ccc(C(=O)N[C@H]2C[C@H]3CC[C@@H](C2)N3c2ccc(C(N)=O)cn2)cc1 [N-{8-[5-(aminocarbonyl)pyridin-2-yl]-8-azabicyclo[3.2.1]oct-3-endo-yl}benzene-1,4-dicarboxamide] | 1000 to 2000 nM
Cc1cc(C(N)=O)c(NC(C)C2CC2)cc1C(=O)N[C@H]1C[C@H]2CC[C@@H](C1)N2c1ccc(C(=O)C2CC2)cn1 (stereo partly drawn) [N-{8-[5-(cyclopropylcarbonyl)pyridin-2-yl]-8-azabicycbo[3.2.1]oct-3-endo-yl}-5-[(l-cyclopropylethyl)amino]-2-methylbenzene-1,4-dicarboxamide] | < 500 nM
Cc1cc(C(N)=O)c(NCC(C)(C)C)cc1C(=O)N[C@H]1C[C@H]2CC[C@@H](C1)N2c1ccc(C(=O)C2CC2)cn1 [N-{8-[5-(cyclopropylcarbonyl)pyridin-2-yl]-8-azabicyclo[3.2.1]oct-3-endo-yl)-5-[(2,2-dimethylpropyl)amino]-2-methylbenzene-1,4-dicarboxamide] | < 500 nM
Cc1cc(C(N)=O)c(NCC2CC2)cc1C(=O)N[C@H]1C[C@H]2CC[C@@H](C1)N2c1ccc(C(=O)C2CC2)cn1 [N-{8-[5-(cyclopropylcarbonyl)pyridin-2-yl]-8-azabicyclo[3.2.1]oct-3-endo-yl)-5-[(cyclopropylmethyl)amino]-2-methylbenzene-1,4-dicarboxamide] | < 500 nM
CCNc1cc(C(N)=O)c(N[C@H](C)CC)cc1C(=O)NC1CC2CCC(C1)N2c1ccc(C(=O)C2CC2)cn1 (stereo partly drawn) [N-{8-[5-(cyclopropylcarbonyl)pyridin-2-yl]-8-azabicyclo[3.2.1]oct-3-endo-yl}-2-(ethylamino)-5-{[(1R)-1-methylpropyl]amino}benzene-1,4-dicarboxamide] | 2000 to 10000 nM
